One test concerns the target αvβ6 (Homo sapiens, UniProt P06756+P18564). The test is described as follows: Solid Phase Integrin αvβ6 Assay. In kind it is binding. In a few lines:
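Plates coated with 1 μg/mL recombinant TGFb1-LAP; compounds and αvβ6 (0.2 μg/mL diluted stock) incubated 1 h at room temperature in 2% BSA/TBST with 1 mM MnCl2. Bound integrin detected with streptavidin-HRP and TMB; IC50 from four-parameter logistic fits.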

A further test has as its target αvβ1 (Homo sapiens, UniProt P05556+P06756). The test is described as follows: Solid Phase Integrin αvβ1 Assay. In kind it is binding. The essentials:
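Wells coated with 1 µg/mL recombinant TGFb1-LAP and blocked with 2% BSA/TBST, 1 mM MnCl2; αvβ1 (added at 0.2 µg/mL) and compound incubated 90 min at room temperature. Bound integrin detected by streptavidin-HRP (20 min) and TMB after Mn-containing washes; IC50 by four-parameter logistic fit.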

Structures can show the parent of a compound that is named as a salt.

For orientation: IC50 means the midpoint of a concentration-inhibition curve. A low value points to higher potency.

Chain of αvβ6 (P06756 31-992 limits assumed): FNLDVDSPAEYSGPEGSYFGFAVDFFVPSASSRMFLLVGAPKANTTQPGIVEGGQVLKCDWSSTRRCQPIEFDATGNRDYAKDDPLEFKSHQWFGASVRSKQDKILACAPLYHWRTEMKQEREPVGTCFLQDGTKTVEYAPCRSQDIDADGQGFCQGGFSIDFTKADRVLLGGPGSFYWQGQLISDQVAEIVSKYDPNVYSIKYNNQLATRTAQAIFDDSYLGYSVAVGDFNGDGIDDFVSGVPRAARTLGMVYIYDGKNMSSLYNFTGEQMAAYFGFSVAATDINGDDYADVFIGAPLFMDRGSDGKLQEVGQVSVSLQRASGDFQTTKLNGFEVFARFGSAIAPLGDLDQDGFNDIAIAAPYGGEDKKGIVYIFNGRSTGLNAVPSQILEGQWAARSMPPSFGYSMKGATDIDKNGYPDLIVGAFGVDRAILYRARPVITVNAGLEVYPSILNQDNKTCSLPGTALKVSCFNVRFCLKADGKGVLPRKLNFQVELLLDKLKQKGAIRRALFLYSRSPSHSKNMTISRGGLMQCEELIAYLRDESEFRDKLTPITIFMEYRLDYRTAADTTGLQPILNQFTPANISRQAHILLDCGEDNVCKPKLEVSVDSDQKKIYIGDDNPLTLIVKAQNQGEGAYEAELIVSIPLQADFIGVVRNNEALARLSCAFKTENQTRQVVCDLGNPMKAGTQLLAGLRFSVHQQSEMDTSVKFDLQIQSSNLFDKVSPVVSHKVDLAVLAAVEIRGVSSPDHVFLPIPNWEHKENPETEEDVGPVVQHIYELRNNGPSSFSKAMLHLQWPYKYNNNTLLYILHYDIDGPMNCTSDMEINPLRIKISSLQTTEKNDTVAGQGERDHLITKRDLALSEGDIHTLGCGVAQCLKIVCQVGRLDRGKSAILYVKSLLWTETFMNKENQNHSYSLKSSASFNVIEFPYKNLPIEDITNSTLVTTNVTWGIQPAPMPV
Chain of αvβ6 (P18564 22-707 limits assumed): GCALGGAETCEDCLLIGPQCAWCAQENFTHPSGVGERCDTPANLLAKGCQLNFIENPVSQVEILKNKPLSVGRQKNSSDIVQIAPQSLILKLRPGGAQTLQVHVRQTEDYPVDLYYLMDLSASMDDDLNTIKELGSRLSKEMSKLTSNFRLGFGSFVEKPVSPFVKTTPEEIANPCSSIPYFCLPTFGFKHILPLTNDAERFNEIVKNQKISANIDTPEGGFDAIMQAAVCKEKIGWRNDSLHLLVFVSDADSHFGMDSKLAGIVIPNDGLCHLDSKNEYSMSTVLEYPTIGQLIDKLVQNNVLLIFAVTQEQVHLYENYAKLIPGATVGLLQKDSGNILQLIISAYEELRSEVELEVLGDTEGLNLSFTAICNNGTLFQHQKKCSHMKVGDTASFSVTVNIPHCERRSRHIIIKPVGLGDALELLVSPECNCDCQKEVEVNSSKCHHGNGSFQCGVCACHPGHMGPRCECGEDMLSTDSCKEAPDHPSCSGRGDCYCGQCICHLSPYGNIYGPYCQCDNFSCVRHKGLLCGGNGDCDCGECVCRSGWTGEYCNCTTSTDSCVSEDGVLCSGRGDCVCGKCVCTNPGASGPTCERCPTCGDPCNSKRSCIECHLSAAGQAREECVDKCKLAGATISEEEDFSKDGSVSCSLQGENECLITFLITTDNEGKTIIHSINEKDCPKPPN
Chain of αvβ1 (P06756 31-992 limits assumed): as the sequence (P06756 31-992 limits assumed) above
Chain of αvβ1 (P05556 21-728 limits assumed): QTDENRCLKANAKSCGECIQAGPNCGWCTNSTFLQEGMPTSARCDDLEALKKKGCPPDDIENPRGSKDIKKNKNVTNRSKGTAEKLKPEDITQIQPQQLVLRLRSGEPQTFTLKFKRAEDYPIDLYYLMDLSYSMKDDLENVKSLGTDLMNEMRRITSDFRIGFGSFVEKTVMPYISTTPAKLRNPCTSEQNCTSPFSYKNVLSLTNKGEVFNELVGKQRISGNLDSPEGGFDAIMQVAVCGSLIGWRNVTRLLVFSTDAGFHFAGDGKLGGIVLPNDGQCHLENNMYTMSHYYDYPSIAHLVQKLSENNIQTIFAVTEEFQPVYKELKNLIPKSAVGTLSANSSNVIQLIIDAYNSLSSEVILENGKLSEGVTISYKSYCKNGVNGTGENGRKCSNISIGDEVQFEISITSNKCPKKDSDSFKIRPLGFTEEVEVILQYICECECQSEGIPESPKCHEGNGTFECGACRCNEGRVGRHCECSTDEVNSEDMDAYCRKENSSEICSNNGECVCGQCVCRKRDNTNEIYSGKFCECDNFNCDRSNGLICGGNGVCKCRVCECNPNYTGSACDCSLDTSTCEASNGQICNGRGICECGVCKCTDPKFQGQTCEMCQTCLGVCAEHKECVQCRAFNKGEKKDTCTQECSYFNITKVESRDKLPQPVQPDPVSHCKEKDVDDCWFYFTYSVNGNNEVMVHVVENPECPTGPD

Consider `O=C(NC1CCCCC1)N[C@@H](CNC(=O)[C@@H]1CCCN(CCCc2ccc3c(n2)NCCC3)C1)C(=O)O` [Compound 284, (S)-2-(3-cyclohexylureido)-3-((R)-1-(3-(5,6,7,8-tetrahydro-1,8-naphthyridin-2-yl)propyl)piperidine-3-carboxamido)propanoic acid], for which the IC50 on αvβ6 and at αvβ1 was less than 100 nM throughout.

With `O=C(O)C[C@@H](NC(=O)[C@@H]1CCCN(CCCc2ccc3c(n2)NCCC3)C1)c1cc(C2CC2)ccc1F` [Compound 245-B, 3-(5-cyclopropyl-2-fluorophenyl)-3-((R)-1-(3-(5,6,7,8-tetrahydro-1,8-naphthyridin-2-yl)propyl)piperidine-3-carboxamido)propanoic acid], the IC50 against αvβ6 and on αvβ1 was less than 100 nM throughout.

`O=C(NC[C@H](C(=O)O)c1cccc2c1CCC2)[C@@H]1CCCN(CCCc2ccc3c(n2)NCCC3)C1` [Compound 560]: the IC50 against αvβ6 and against αvβ1 was 100 to 1000 nM each time.

On to `O=C(O)C[C@H](NC(=O)[C@@H]1CCCN(C(=O)CCc2ccc3c(n2)NCCC3)C1)c1ccccc1` [Compound 289, (S)-3-phenyl-3-((R)-1-(3-(5,6,7,8-tetrahydro-1,8-naphthyridin-2-yl)propanoyl)piperidine-3-carboxamido)propanoic acid hydrochloride], for which the IC50 at αvβ6 and on αvβ1 was 100 to 1000 nM each time.

On to `O=C(NC[C@H](C(=O)O)c1cnc2[nH]ccc2c1)[C@@H]1CCCN(CCCc2ccc3c(n2)NCCC3)C1` [Compound 325], for which the IC50 against αvβ6 and against αvβ1 was less than 100 nM each time.

Take `O=C(O)C[C@H](CO[C@@H]1CCCN(CCCc2ccc3c(n2)NCCC3)C1)c1cccc(N2C[C@@H]3CC[C@H]2CO3)c1` [Compound 462]: the half-inhibitory concentration (IC50) at αvβ6 and on αvβ1 was less than 100 nM each time.

Turning to `O=C(O)[C@@H](CO[C@@H]1CCCN(CCCCc2ccc3c(n2)NCCC3)C1)Nc1ncnc2ccccc12` [Compound 410], the half-inhibitory concentration (IC50) on αvβ6 and against αvβ1 was more than 1000 nM in each case.

Turning to `O=C(O)C[C@H](NC(=O)[C@@H]1CCCN(CCCc2ccc3c(n2)NCCC3)C1)c1cccc(N2CCCCC2)c1` [Compound 232, (S)-3-(3-(piperidin-1-yl)phenyl)-3-((R)-1-(3-(5,6,7,8-tetrahydro-1,8-naphthyridin-2-yl)propyl)piperidine-3-carboxamido)propanoic acid hydrochloride], the IC50 at αvβ6 and against αvβ1 was less than 100 nM in each case.

Turning to `O=C(NC[C@@H](C(=O)O)c1cccc(-c2ccccc2)c1)[C@@H]1CCCN(CCCc2ccc3c(n2)NCCC3)C1` [Compound 256-A, 2-([1,1′-biphenyl]-3-yl)-3-((R)-1-(3-(5,6,7,8-tetrahydro-1,8-naphthyridin-2-yl)propyl)piperidine-3-carboxamido)propanoic acid], the IC50 at αvβ6 and against αvβ1 was 100 to 1000 nM in each case.

With `O=C(O)C[C@H](CO[C@@H]1CCCN(CCCc2ccc3c(n2)NCCC3)C1)c1cccc(-c2ccccc2)c1` [Compound 456], the IC50 at αvβ6 and at αvβ1 was less than 100 nM each time.

On to `O=C(NC[C@@H](C(=O)O)c1cccc(-c2ccccc2C(F)(F)F)c1)[C@@H]1CCCN(CCCc2ccc3c(n2)NCCC3)C1` [Compound 625], for which the IC50 was 100 to 1000 nM on αvβ6 and more than 1000 nM at αvβ1.

For the compound `O=C(O)C[C@H](NC[C@@H]1CCCN(CCCc2ccc3c(n2)NCCC3)C1)c1ccccc1` [Compound 292, (S)-3-phenyl-3-(S)-1-(3-(5,6,7,8-tetrahydro-1,8-naphthyridin-2-yl)propyl)piperidin-3-yl)methyl)amino)propanoic acid hydrochloride], the IC50 against αvβ6 and against αvβ1 was more than 1000 nM each time.

As for `CC1(C)CCN(c2cccc([C@H](CC(=O)O)NC(=O)[C@@H]3CCCN(CCCc4ccc5c(n4)NCCC5)C3)c2)CC1` [Compound 237, (S)-3-(3-(4,4-dimethylpiperidin-1-yl)phenyl)-3-((R)-1-(3-(5,6,7,8-tetrahydro-1,8-naphthyridin-2-yl)propyl)piperidine-3-carboxamido)propanoic acid], the IC50 against αvβ6 and at αvβ1 was less than 100 nM in each case.

`O=C(NC[C@H](Nc1ccc(-c2ccccc2)nc1)C(=O)O)[C@@H]1CCCN(CCCc2ccc3c(n2)NCCC3)C1` [Compound 360]: the IC50 against αvβ6 and on αvβ1 was less than 100 nM each time.

As for `O=C(CC[C@@H](NC(=O)C12CCC(CC1)CC2)C(=O)O)N[C@H]1CCN(C(=O)CCCc2ccc3c(n2)NCCC3)C1` [Compound 433], the IC50 against αvβ6 and against αvβ1 was more than 1000 nM throughout.

Turning to `O=C(NC[C@H](C(=O)O)c1cccc2cnn([C@@H]3CCOC3)c12)[C@@H]1CCCN(CCCc2ccc3c(n2)NCCC3)C1` [Compound 323], the IC50 against αvβ6 and against αvβ1 was less than 100 nM in each case.

In the case of `O=C(N[C@@H](CNC(=O)[C@@H]1CCCN(CCCc2ccc3c(n2)NCCC3)C1)C(=O)O)c1ccc(Cl)c(Cl)c1` [Compound 368], the IC50 against αvβ6 and against αvβ1 was less than 100 nM in each case.

Take `O=C(NC[C@H](C(=O)O)c1cccc(N2C[C@@H]3CC[C@H]2CO3)c1)[C@@H]1CCCN(CCCc2ccc3c(n2)NCCC3)C1` [Compound 566]: the IC50 against αvβ6 and against αvβ1 was less than 100 nM throughout.

For `Cc1ccn(-c2cccc([C@H](CC(=O)O)NC(=O)[C@@H]3CCCN(CCCc4ccc5c(n4)NCCC5)C3)c2)n1` [Compound 238, (S)-3-(3-(3-methyl-1H-pyrazol-1-yl)phenyl)-3-((R)-1-(3-(5,6,7,8-tetrahydro-1,8-naphthyridin-2-yl)propyl)piperidine-3-carboxamido)propanoic acid], the IC50 against αvβ6 and on αvβ1 was less than 100 nM throughout.

`Cc1cc(C)n(-c2cccc([C@H](CC(=O)O)NC(=O)[C@@H]3CCCN(CCCc4ccc5c(n4)NCCC5)C3)c2)n1` [Compound 225, (S)-3-(3-(3,5-dimethyl-1H-pyrazol-1-yl)phenyl)-3-((R)-1-(3-(5,6,7,8-tetrahydro-1,8-naphthyridin-2-yl)propyl)piperidine-3-carboxamido)propanoic acid hydrochloride]: the IC50 against αvβ6 and against αvβ1 was less than 100 nM throughout.

Take `O=C(O)C[C@@H](CO[C@@H]1CCCN(CCCc2ccc3c(n2)NCCC3)C1)c1cccc([C@@H]2CCOC2)c1` [Compound 506]: the IC50 against αvβ6 and at αvβ1 was less than 100 nM throughout.

Take `O=C(CC[C@H](C(=O)O)c1ccccc1)N[C@@H]1CCN(C(=O)CCCc2ccc3c(n2)NCCC3)C1` [Compound 418]: the IC50 on αvβ6 and against αvβ1 was more than 1000 nM throughout.

Take `Cc1cc(C(F)(F)F)nn1-c1cccc([C@@H](CO[C@@H]2CCCN(CCCc3ccc4c(n3)NCCC4)C2)CC(=O)O)c1` [Compound 576]: the IC50 at αvβ6 and against αvβ1 was less than 100 nM in each case.

`O=C(NC[C@@H](Nc1cccc(C2CC(F)(F)C2)c1)C(=O)O)[C@@H]1CCCN(CCCc2ccc3c(n2)NCCC3)C1` [Compound 589]: the IC50 against αvβ6 and on αvβ1 was less than 100 nM in each case.

As to `O=C(NC[C@H](Nc1ncnc2sccc12)C(=O)O)[C@@H]1CCCN(CCCc2ccc3c(n2)NCCC3)C1` [Compound 279, (S)-3-((R)-1-(3-(5,6,7,8-tetrahydro-1,8-naphthyridin-2-yl)propyl)piperidine-3-carboxamido)-2-(thieno[2,3-d]pyrimidin-4-ylamino)propanoic acid], the IC50 on αvβ6 and on αvβ1 was less than 100 nM in each case.

On to `C[C@H]1C[C@@H](C(=O)NC[C@@H](C(=O)O)c2ccc3ccccc3c2)CN(CCCc2ccc3c(n2)NCCC3)C1` [Compound 645], for which the concentration for half-maximal inhibition (IC50) against αvβ6 is more than 1000 nM; on αvβ1 it was 100 to 1000 nM.

On to `O=C(O)C[C@H](NC(=O)[C@@H]1CCCN(CCCc2ccc3c(n2)NCCC3)C1)c1cccc(N2CC3CCC2CO3)c1` (single isomer, unassigned) [Compound 241-B], for which the IC50 at αvβ6 and against αvβ1 was less than 100 nM in each case.

Turning to `C[C@@H]1C[C@@H](C(=O)NC[C@@H](C(=O)O)c2cccc(-c3ccccc3)c2)CN(CCCc2ccc3c(n2)NCCC3)C1` [Compound 640], the IC50 on αvβ6 and against αvβ1 was 100 to 1000 nM throughout.

For the compound `O=C(CC[C@H](NC(=O)C12CCC(CC1)CC2)C(=O)O)N[C@H]1CCN(C(=O)CCCc2ccc3c(n2)NCCC3)C1` [Compound 432], the IC50 against αvβ6 and on αvβ1 was less than 100 nM each time.

For the compound `O=C(NC[C@H](C(=O)O)c1ccccc1-c1ccccc1)[C@@H]1CCCN(CCCc2ccc3c(n2)NCCC3)C1` [Compound 341], the IC50 against αvβ6 and at αvβ1 was more than 1000 nM in each case.

`CC1(C)CCN(c2cccc([C@@H](CO[C@@H]3CCCN(CCCc4ccc5c(n4)NCCC5)C3)CC(=O)O)c2)CC1` [Compound 571]: the half-inhibitory concentration (IC50) against αvβ6 and against αvβ1 was less than 100 nM in each case.

For the compound `O=C(O)C[C@@H](CO[C@@H]1CCCN(CCCc2ccc3c(n2)NCCC3)C1)c1cc(F)cc(C2CC2)c1` [Compound 519], the concentration for half-maximal inhibition (IC50) against αvβ6 and at αvβ1 was less than 100 nM throughout.

As to `O=C(O)C[C@@H](NC(=O)[C@@H]1CCCN(CCCc2ccc3c(n2)NCCC3)C1)c1ccc2c(c1)CCC2` [Compound 201-B, 3-(2,3-dihydro-1H-inden-5-yl)-3-((R)-1-(3-(5,6,7,8-tetrahydro-1,8-naphthyridin-2-yl)propyl)piperidine-3-carboxamido)propanoic acid hydrochloride], the IC50 against αvβ6 and against αvβ1 was less than 100 nM each time.

`O=C(O)C[C@@H](NC(=O)[C@@H]1CCCN(CCCc2ccc3c(n2)NCCC3)C1)c1cnc2ccccc2c1` [Compound 413]: the IC50 against αvβ6 and against αvβ1 was less than 100 nM each time.

For `O=C(CC[C@H](C(=O)O)c1ccccc1)N[C@H]1CCN(CCCCc2ccc3c(n2)NCCC3)C1` [Compound 424], the IC50 against αvβ6 and against αvβ1 was more than 1000 nM in each case.
